# Like-named read-outs stand apart in the source and are kept apart here.
# How the values were obtained:
# [1] = biological target: T1, human androgen receptor (hAR) (Homo sapiens, UniProt P10275); assay: hAR transactivation assay (ARE-luciferase reporter) in Cos-7 cells; assay type: cell-based; conditions: for inhibition of androgen-induced transcriptional activation (antagonistic activity): cells challenged with 10 nM R1881, compound at 10 μM
# T1 construct: The cDNA coding hAR was cloned into the pSG5 expression vector as reported previously; expressed in transfected cells; host or cells: Cos-7 cells transiently transfected with pSG5-hAR
# T1 sequence (P10275 1-920): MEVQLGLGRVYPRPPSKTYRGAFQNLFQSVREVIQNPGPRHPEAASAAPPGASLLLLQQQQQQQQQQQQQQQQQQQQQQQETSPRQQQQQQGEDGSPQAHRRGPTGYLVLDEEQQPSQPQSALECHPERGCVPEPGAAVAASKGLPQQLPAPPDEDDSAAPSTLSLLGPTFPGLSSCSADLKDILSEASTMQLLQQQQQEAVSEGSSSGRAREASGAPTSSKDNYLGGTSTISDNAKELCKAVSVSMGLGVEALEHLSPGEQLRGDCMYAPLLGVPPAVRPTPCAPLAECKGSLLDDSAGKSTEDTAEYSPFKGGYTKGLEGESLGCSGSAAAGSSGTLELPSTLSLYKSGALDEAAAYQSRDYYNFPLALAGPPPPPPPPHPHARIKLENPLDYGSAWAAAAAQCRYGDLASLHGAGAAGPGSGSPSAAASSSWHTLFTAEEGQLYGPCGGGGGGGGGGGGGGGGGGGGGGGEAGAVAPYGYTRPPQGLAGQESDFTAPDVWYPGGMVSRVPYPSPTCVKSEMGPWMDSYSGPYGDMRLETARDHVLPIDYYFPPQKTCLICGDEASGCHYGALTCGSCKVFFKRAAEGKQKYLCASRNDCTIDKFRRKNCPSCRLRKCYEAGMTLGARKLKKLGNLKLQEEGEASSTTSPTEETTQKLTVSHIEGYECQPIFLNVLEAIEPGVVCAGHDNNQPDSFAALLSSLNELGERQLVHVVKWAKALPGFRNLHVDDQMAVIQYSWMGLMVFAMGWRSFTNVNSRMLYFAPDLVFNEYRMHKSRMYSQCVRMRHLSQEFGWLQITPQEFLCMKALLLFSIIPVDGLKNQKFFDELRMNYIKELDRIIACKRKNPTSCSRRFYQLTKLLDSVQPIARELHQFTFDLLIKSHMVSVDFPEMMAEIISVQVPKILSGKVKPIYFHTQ
# Procedure: The cDNA coding hAR was cloned into the pSG5 expression vector as reported previously [Chang, C. S., et al., Science (1988)240:324-326]. The 3416 construct (ARE-Luc), containing four copies of the wild-type slp-HRE2 (5′-TGGTCAgccAGTTCT-3′) (SEQ ID No. 1) was cloned in the NheI site in pTK-TATA-Luc [Verrijdt, G. et al., J. Biol. Chem. (2000)275:12298-12305].
# For androgen-stimulated transcriptional analysis, 32×10^4 Cos-7 cells were plated in phenol red-free DMEM containing 5% charcoal-stripped serum. After 48 h, the cells were transfected by Superfect (Qiagen) with 0.3 μg of 3416-pTK-TATA-Luc construct, together with 1.5 μg of either pSG5-empty plasmid or pSG5-hAR expressing plasmid. After 18 h, transfected cells were stimulated for 24 h with 10 nM of the synthetic androgen, R1881 (from Perkin-Elmer; dissolved in 0.001% ethanol, final concentration), in the absence or presence of the indicated concentrations of synthetic compounds. When indicated, the synthetic compounds were added alone to the cell medium. […] It was dissolved in 0.001% (final concentration) ethanol. Control cells were treated with the vehicle alone. Lysates were prepared and the luciferase activity was measured using a luciferase assay system (Promega). The results were corrected using CH110-expressed beta-galactosidase activity (Amersham Biosciences) and luciferase activity was expressed as fold induction. Results were obtained from two or three different experiments, each performed in duplicate. Mean and SEM are shown.
# LNCaP cells = assay: Sulforhodamine B (SRB) in vitro chemosensitivity assay on LNCaP cells; assay type: cell-based; conditions: for cytostatic effect: suppression of cell growth: highest concentration tested
# Procedure: Sulforhodamine B (SRB) assay was used according to the method by Skehan et al. (JNCI, 1990). Briefly, cells were collected by trypsinization, counted and plated at a density of 5,000 cells/well in 96-well flat-bottomed microtiter plates (100 μl of cell suspension/well). In the chemosensitivity assay, experiments were run in octuplicate, and each experiment was repeated three times. The optical density (OD) of cells was determined at a wavelength of 490 nm by a colorimetric plate reader.
# Growth inhibition and cytocidal effect of drugs were calculated according to the formula reported by Monks et al. (JNCI, 1991): [(ODtreated−ODzero)/(ODcontrol−ODzero)]×100%, when ODtreated is > to ODzero. If ODtreated is above ODzero, treatment has induced a cytostatic effect, whereas if ODtreated is below ODzero, cell killing has occurred. The ODzero depicts the cell number at the moment of drug addition, the ODcontrol reflects the cell number in untreated wells and the ODtreated reflects the cell number in treated wells on the day of the assay. TUNEL Assay
# The authors examined the antitumour activity of the compounds for which the synthesis is described above, in the hormone-sensitive prostate cancer cell line LNCaP. (R)-Bicalutamide and the novel compounds were tested at the increasing concentrations of […]. The highest dose used was chosen on the basis of the clinically achievable peak plasma concentration reported in the literature for bicalutamide (Cockshott I D. Clin Pharmacokinet. 2004; 43 (13) 855-78).
# After 144-hr exposure time, the cytotoxic effect of the molecules was calculated according to the method of Monks et al. (Monks A, et al., J. Nat. Cancer Inst. 1991; 83: 757-66).
# LNCaP-AR cells = assay: TUNEL assay of apoptotic cells in LNCaP-AR; assay type: cell-based, human; conditions: 144 h, 20.0 μM
# [2] = Homo sapiens, LNCaP cells, 144 h exposure, read-out: Growth inhibition (GI50)
# [3] = LNCaP cells, 144 h exposure, n.r. = not reached
# [4] = Homo sapiens, LNCaP, 144 h, read-out: Growth inhibition (GI50), LNCaP cells, 144 h exposure
structure (smiles),measurement,setting,value
N#Cc1ccc(OCC(N)(Cc2ccccc2)C(=O)Nc2ccc(C#N)c(C(F)(F)F)c2)cc1 (stereo in doubt) [(R)-7c],agonistic activity in presence of Casodex,[1]; Casodex at 10 μM,inhibited
same,"increase of transcriptional activity of AR, compound alone",[1]; range between 10-100 nM,about 15 fold
N#Cc1ccc(NC(=O)C(N)(Cc2ccccc2)CS(=O)(=O)c2ccc(F)cc2)cc1C(F)(F)F (stereo in doubt) [(S)-8],cytocidal effects by 50% (LC50),LNCaP cells,n.r.
same,GI50,LNCaP cells; [2],10.4 µM
same,cytostatic effect: suppression of cell growth,"LNCaP cells; LNCaP cells, 144 h",suppress completely the cell growth
N#Cc1ccc(NC(=O)C(N)(CS(=O)(=O)c2ccc(F)cc2)c2ccccc2)cc1C(F)(F)F (stereo in doubt) [(S)-9],cytostatic effect: suppression of cell growth,"LNCaP cells; LNCaP cells, 144 h",suppress completely the cell growth
same,cytocidal effects by 50% (LC50),LNCaP cells; [3],n.r.
same,GI50,"LNCaP cells; read-out: Growth inhibition (GI50), LNCaP cells, 144 h exposure",4 µM
"N#Cc1ccc(NC(=O)[C@](N)(Cc2ccccc2)CS(=O)(=O)c2ccc(F)cc2)cc1C(F)(F)F [(R)-8, (R)-2-amino-2-benzyl-N-(4-cyano-3-(trifluoromethyl)phenyl)-3-(4-fluorophenylsulfonyl)propanamide]",cytocidal (cell killing) activity,"LNCaP cells; LNCaP cells, 144 h exposure",cytocidal activity
N#Cc1ccc(N2C(=O)[C@](Cc3ccccc3)(CS(=O)(=O)c3ccc(F)cc3)NC2=S)cc1C(F)(F)F [(R)-11],"agonistic activity, compound alone",[1]; authors' experimental conditions,does not show agonistic activity
same,inhibition of androgen-induced transcriptional activation (antagonistic activity),[1],strong inhibition
same,cytocidal effects by 50% (LC50),LNCaP cells,n.r.
same,GI50,LNCaP cells; [2],8.5 µM
same,cytocidal (cell killing) activity,"LNCaP cells; LNCaP cells, 144 h exposure",cytocidal activity
CS(=O)(=O)N[C@@](CS(=O)(=O)c1ccc(F)cc1)(C(=O)Nc1ccc(C#N)c(C(F)(F)F)c1)c1ccccc1 [(R)-12],inhibition of androgen-induced transcriptional activation (antagonistic activity),[1],does not interfere
same,"agonistic activity, compound alone",[1]; range between 10 nM-10 μM,does not show agonistic activity
"N#Cc1ccc(N2C(=O)[C@@](CS(=O)(=O)c3ccc(F)cc3)(c3ccccc3)NC2=S)cc1C(F)(F)F [(R)-13, (R)-4-(4-((4-fluorophenylsulfonyl)methyl)-5-oxo-4-phenyl-2-thioxoimidazolidin-1-yl)-2-(trifluoromethyl)benzonitrile]",cytocidal effects by 50% (LC50),LNCaP cells,n.r.
same,GI50,LNCaP cells; [2],14 µM
Cc1ccc(S(=O)(=O)N[C@@](C)(CS(=O)(=O)c2ccc(F)cc2)C(=O)Nc2ccc(C#N)c(C(F)(F)F)c2)cc1 [(R)-26],inhibition of androgen-induced transcriptional activation (antagonistic activity),[1],does not show antagonistic activity
same,apoptosis induction in the LNCaP derivative cell line versus LNCaP,LNCaP-AR cells,more active
same,GI50,LNCaP cells; [4],9.3 µM
same,cytocidal effects by 50% (LC50),LNCaP cells; [3],n.r.
C[C@@]1(CS(=O)(=O)c2ccc(F)cc2)NC(=S)N(c2ccc(C#N)c(C(F)(F)F)c2)C1=O [(R)-27],cytocidal effects by 50% (LC50),LNCaP cells,n.r.
same,GI50,LNCaP cells; [2],15.2 µM
"C[C@@]1(CS(=O)(=O)c2ccc(F)cc2)NC(=O)N(c2ccc(C#N)c(C(F)(F)F)c2)C1=O [(R)-28, (R)-4-(4-((4-fluorophenylsulfonyl)methyl)-4-methyl-2,5-dioxoimidazolidin-1-yl)-2-(trifluoromethyl)benzonitrile]",cytocidal effects by 50% (LC50),LNCaP cells,n.r.
same,GI50,LNCaP cells; [2],14.9 µM
C[C@]1(CS(=O)(=O)c2ccc(F)cc2)C(=O)N(c2ccc(C#N)c(C(F)(F)F)c2)C(=O)N1S(C)(=O)=O [(R)-29],cytocidal effects by 50% (LC50),LNCaP cells,n.r.
same,GI50,LNCaP cells; [2],12.3 µM
N#Cc1ccc(OC[C@]2(Cc3ccccc3)NC(=O)N(c3ccc(C#N)c(C(F)(F)F)c3)C2=O)cc1 [(S)-14e],"increase of transcriptional activity of AR, compound alone",[1]; 100 nM,about 55 fold
C[C@@](N)(CS(=O)(=O)c1ccc(F)cc1)C(=O)Nc1ccc(C#N)c(C(F)(F)F)c1 [(S)-23],GI50,LNCaP cells; [4],9.4 µM
same,cytocidal effects by 50% (LC50),LNCaP cells; [3],n.r.
C[C@]1(CS(=O)(=O)c2ccc(F)cc2)NC(=O)N(c2ccc(C#N)c(C(F)(F)F)c2)C1=O [(S)-28],cytocidal effects by 50% (LC50),LNCaP cells,n.r.
same,GI50,LNCaP cells; [2],1.8 µM
C[C@@]1(CS(=O)(=O)c2ccc(F)cc2)C(=O)N(c2ccc(C#N)c(C(F)(F)F)c2)C(=O)N1S(C)(=O)=O [(S)-29],cytocidal effects by 50% (LC50),LNCaP cells,n.r.
same,GI50,LNCaP cells; [2],12.5 µM
C[C@@]1(CS(=O)(=O)c2ccc(F)cc2)C(=O)N(c2ccc(C#N)c(C(F)(F)F)c2)C(=S)N1S(C)(=O)=O [(S)-30],cytocidal effects by 50% (LC50),LNCaP cells,n.r.
same,Growth inhibition (GI50),"LNCaP cells; LNCaP cells, 144 h exposure",n.r.
C[C@]1(CS(=O)(=O)c2ccc(F)cc2)N=C(SS(C)(=O)=O)N(c2ccc(C#N)c(C(F)(F)F)c2)C1=O [(S)-31],cytocidal effects by 50% (LC50),LNCaP cells,n.r.
same,Growth inhibition (GI50),"LNCaP cells; LNCaP cells, 144 h exposure",n.r.
N#Cc1ccc(NC(=O)[C@](N)(Cc2ccc(F)cc2)c2ccccc2)cc1C(F)(F)F [(S)-36],cytocidal effects by 50% (LC50),LNCaP cells,n.r.
same,GI50,LNCaP cells; [2],4.3 µM
same,cytostatic effect: suppression of cell growth,"LNCaP cells; LNCaP cells, 144 h",suppress completely the cell growth
"C[C@]1(O)CC[C@H]2[C@@H]3CCC4=CC(=O)CCC4=C3C=C[C@@]21C [R1881, methyltrienolone-17β-hydroxy-17-methyl-estra-4,9.11-trien-3-one, reference compound]",increase of AR-mediated transcriptional activation,"[1]; 10 nM, Cos-7 cells, ARE-reporter gene",about 11 fold

# Source: patent US8859599B2, “Androgen receptor modulating compounds, preparation and uses thereof” (priority 2009, dated 2014)
